Like-named read-outs stand apart in the source and are kept apart here.
Legend:
tumor MOSs = assay: Drug screen on MOSs generated from a patient tumor biopsy; assay type: cell-based
Description: (§1) In a similar set of experiments, MOSs were generated from biopsy material (FIG. 23A), and a drug effect screen was performed using the resulting MOSs. […] Thus, the MOSs correlated strongly with patient response to the standard of care drugs. In this case, the patient endured six months of side effects and toxicities that may have been avoided by the predicted response from the MOSs, indicating (within 7-10 days from the biopsy) that the tumor would not respond to these drugs.
In this example, a drug screen using the Patient-Derived MOSs was run by dosing a plurality of replicates for each of a plurality of (27) drugs. A single tumor biopsy was used to generate a plurality of MOSs in large quantities extremely fast (e.g., within less than two weeks) and these MOSs were tested against the panel of drug formulations (e.g., 27 formulations are shown). This testing was done in parallel and could be automatically quantified (e.g., by optical detection and quantification).

tumor = assay: Actual patient tumor response to treatment; conditions: in vivo
Description: as §1

3D Hepatocyte Spheroid = conditions: values above 199 show no toxicity; read-out: 3D Hepatocyte Spheroid pIC50 (converted); cited from earlier work
HepG2 = conditions: values above 199 show no toxicity; read-out: Typical 2D HepG2 Monolayer Cell Health IC50; cited from earlier work
mouse liver MOSs = assay: Toxicity assay using mouse liver MOSs; assay type: cell-based; conditions: 10 mM
human liver MOSs = assay: Toxicity assay using human liver MOSs; assay type: cell-based; conditions: 10 mM
Text: Similarly, FIGS. 34A-34B also show toxicity assays using human liver MOSs.

HepatoMOS (PHHs) = assay: HepatoMOS-based DILI assay (CTG viability, live/dead staining); assay type: cell-based, human; conditions: for IC50: Homo sapiens; for sensitivity of HepatoMOS-based versus spheroid-based DILI assay: indicated by lower IC50 values and large safety margins
Description: Frozen human hepatocytes from Lonza were plated at 30,000 cells per well and allowed to establish in plating media. On day 2 plating media was removed and replaced with maintenance media and cultured for 1 day. On the third day, media was replaced with treatment media and the cells were treated for 72 hours. Prior to harvest HepatoMOSs were treated with CTG reagent to monitor viability.
100 cells/droplet was used in this experiment, the cell viabilities were determined by Celltiter Glo 3D.
(§2) Cell viability assay: The cell viabilities of PHHs in 2D monolayer culture or HepatoMOS culture were measured by CellTiter-Glo® 3D Cell Viability Assay (Promega). For the HepatoMOS viability measurement, we also applied the combination of Calcein AM and EtH staining in addition to CTG assay as previously reported.
(§3) DILI assessment in 2D PHHs and HepatoMOS: For the DILI assessment in the 2D monolayer of PHH cultures, PHHs were seeded at the cell density of 20,000 live cells/well in the collagen-coated 96-well plates. After 24h of culturing, the PHHs were exposed to DILI compounds at different concentrations. The cell viabilities of PHHs were then measured by using CTG assay and the DILI effects were assessed by the changes of CTG reading. For the DILI assessment in HepatoMOS culture, the HepatoMOS were encapsulated at 100 cells/droplet and cultured at HCM or InSphero media for 4 days. Then the HepatoMOS were dispensed into 96 well plates and followed by the drug treatment.

[1] = tested on: 2D monolayer of PHH cultures; assay: 2D-based DILI assay; assay type: cell-based, human
Description: as §2, §3

spheroid PHHs = assay: Spheroid-based DILI assay; assay type: cell-based, human
Description: Culture of PHHs and HepatoMOS generation: The pooled donors and the individual donor of PHHs were purchased from BioIVT (www.bioivt.com). The PHHs used to compare the DILI predictivities of the spheroid method vs. HepatoMOS methods were accompanied with the InSphero Kit. Four different serum-free media options (InSphero, HCM™ Hepatocyte Culture Medium BulletKit™, BioIVT INVITROGRO HI Medium, and William E) were selected for the initial HepatoMOS culture in this study. PHHs were cultured either as a 2D monolayer on collagen-coated 96-well plates or encapsulated in MOS to create HepatoMOS at different cell densities. For the comparison of HepatoMOS with the dome culture methods, matched cell densities used for the dome and making HepatoMOS were used.
Given the high fidelity of cell viability, maintenance, and hepatic-specific function preservation in HepatoMOS culture, the potential application in predicting DILI effects during drug development was evaluated. The sensitivities and specificities of HepatoMOS were compared with two widely used approaches for DILI detection: i) 2D culture; and ii) spheroid PHHs.

[2] = combined with immunotherapies; cited from earlier work
traditional cell line = assay: Traditional cell line drug screen; assay type: cell-based; conditions: all dose ranges examined
Text: As mentioned above, the MOSs and methods of using them to screen for drug compositions may be used to accurately predict the response of a patient tumor to one or more drug therapies. […] For example, in FIG. 22A-22D, the MOSs, but not a cell line, was able to correlate with patient response.

CCc1c2c(nc3ccc(OC(=O)N4CCC(N5CCCCC5)CC4)cc13)-c1cc3c(c(=O)n1C2)COC(=O)[C@]3(O)CC [Irinotecan]
cell survival of tumor MOSs (tumor MOSs): lack of effect | patient tumor response to treatment (tumor): no response

O=c1[nH]c(=O)n([C@@H]2O[C@H](CO)[C@@H](O)[C@@H]2F)cc1I [Fialuridine]
IC50 (3D Hepatocyte Spheroid): 1.32 µM | IC50 (HepG2): > 200 µM

O=C(O)Cc1ccccc1Nc1c(Cl)cccc1Cl [Diclofenac]
IC50 (3D Hepatocyte Spheroid): 66.1 µM | IC50 (HepG2): > 200 µM

CC(=O)Nc1ccc(O)cc1 [acetaminophen]
tissue in mouse liver MOSs versus control (mouse liver MOSs): smaller and contains many dead cells | tissue in human liver MOSs versus control (human liver MOSs): significant increase atypical tissue structures (arrows) and debris

C=CC(=O)N1CCN(c2nc(=O)n(-c3c(C)ccnc3C(C)C)c3nc(-c4c(O)cccc4F)c(F)cc23)[C@@H](C)C1 [AMG-510]
IC50 (HepatoMOS (PHHs); 10 donor batch): < 10 µM | IC50 (HepatoMOS (PHHs); single donor): < 3.7 µM | DILI concern in 2D-based DILI assay [1]: failed to capture any DILI concern | DILI concern in spheroid-based DILI assay (spheroid PHHs): failed to capture any DILI concern | liver side effects in Phase 1 clinical trial [2]: higher incidence of severe liver side effects

CS(=O)(=O)CCNCc1ccc(-c2ccc3ncnc(Nc4ccc(OCc5cccc(F)c5)c(Cl)c4)c3c2)o1 [Lapatinib]
IC50 (3D Hepatocyte Spheroid): 1.32 µM | IC50 (HepG2): > 200 µM

Cc1c(C)c2c(c(C)c1O)CCC(C)(COc1ccc(CC3SC(=O)NC3=O)cc1)O2 (centres unmarked) [Troglitazone]
sensitivity of HepatoMOS-based versus spheroid-based DILI assay (HepatoMOS (PHHs)): better sensitivities

Cc1ccc(C(=O)c2cc(O)c(O)c([N+](=O)[O-])c2)cc1 [Tolcapone]
sensitivity of HepatoMOS-based versus spheroid-based DILI assay (HepatoMOS (PHHs)): better sensitivities | IC50 (3D Hepatocyte Spheroid): 9.99 µM | IC50 (HepG2): 91.2 µM

COc1ccccc1Oc1c(NS(=O)(=O)c2ccc(C(C)(C)C)cc2)nc(-c2ncccn2)nc1OCCO [Bosentan]
IC50 (3D Hepatocyte Spheroid): 166 µM | IC50 (HepG2): > 200 µM

O=C1[O][Pt]2([NH][C@@H]3CCCC[C@H]3[NH]2)[O]C1=O [Oxaliplatin]
effect on traditional cell line (traditional cell line): no effect | cell survival of tumor MOSs (tumor MOSs; listed as Oxalipalatin): no change in the percent survival | cell survival of tumor MOSs (tumor MOSs; listed as Oxalipalitin): significant decreases in cell survival | patient tumor response to treatment (tumor; listed as Oxalipalatin): no response | patient tumor response to treatment (tumor; listed as Oxalipalitin): responded to treatment

— patent US20250320462A1, “METHODS AND APPARATUSES FOR TESTING HEPATOCYTE TOXICITY USING MICROORGANOSPHERES” (XILIS, INC., priority 2022, published 2025)
